This is an account of results in ChEMBL document CHEMBL1201862, “PubChem BioAssay data set” (2004).

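1) Cells in 96-well plates. 2) Compound, 48 h, 5 concentrations. 3) Linear interpolation between surrounding doses. 4) Unreached endpoint = highest concentration. GI50 = concentration required for 50% inhibition of growth.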 Active and inactive are the calls of the source. Cut-off read from the data, not from the text of the source: active = GI50 up to about 1.1 µM and inactive = higher.

Test systems include SF-268; MDA-MB-435; OVCAR-5; U-251; CAKI-1; HCC 2998; KM12; UO-31; A498; NCI-H226; SF-295; CCRF-CEM; MOLT-4; Malme-3M; 786-0; UACC-62; NCI-H522.
What all share (assay): NCI-60 cell line screen, 48 h

Consider `CCOC(=O)C12OC(OCC)(CC1(OCC)OCC)C1(CC1)C2=O` (stereo not given), for which the GI50 with SF-268, with MDA-MB-435, in the experiment on OVCAR-5, in the experiment with U-251, in the experiment on CAKI-1 and in the experiment with HCC 2998 was > 100 µM (inactive) in each case. Moreover, the GI50 in the experiment on KM12, in the experiment with UO-31, in the experiment with A498, in the experiment on NCI-H226, in the experiment on SF-295 and with CCRF-CEM was > 100 µM (inactive) each time. The GI50 with MOLT-4, in the experiment on Malme-3M and with 786-0 was > 100 µM (inactive) throughout.

As for `Cc1cc(-c2c(Br)cc(C(=O)O)n2C)on1`, the GI50 in the experiment on SF-268, in the experiment on MDA-MB-435, in the experiment with UACC-62, in the experiment on OVCAR-5, in the experiment on U-251 and with CAKI-1 was > 100 µM (inactive) each time. Further, the GI50 in the experiment with KM12, with UO-31, in the experiment with A498, with NCI-H226, with NCI-H522 and in the experiment on SF-295 was > 100 µM (inactive) throughout. In addition, the GI50 with CCRF-CEM, in the experiment on MOLT-4, in the experiment on Malme-3M and with 786-0 was > 100 µM (inactive) each time.

For the compound `O=C(CCO)OCCCCCC/C=C\CCCCCC/C=C\CCCCCCCCOC(=O)CCO`, the GI50 in the experiment on SF-268 is 18.5 µM (inactive); with MDA-MB-435, 21.2 µM (inactive); with UACC-62, 16.3 µM (inactive); with OVCAR-5, 18.3 µM (inactive); in the experiment with U-251, 16.7 µM (inactive); with CAKI-1 it was 21.7 µM (inactive). The GI50 with HCC 2998 was 16.5 µM (inactive); with KM12, 19.1 µM (inactive); in the experiment on UO-31, 18.6 µM (inactive); with A498, 23.3 µM (inactive); in the experiment on NCI-H522 it was 16.5 µM (inactive); with SF-295 it was 18.3 µM (inactive). Also, the GI50 in the experiment on CCRF-CEM was 3.05 µM (inactive); with MOLT-4 it was 14.6 µM (inactive); in the experiment with Malme-3M, 20.5 µM (inactive); with 786-0, 18.5 µM (inactive).

On to `COC(=O)c1cn(CCCC(=O)O)nn1`, for which the GI50 with SF-268, in the experiment with MDA-MB-435, with UACC-62, with U-251, with CAKI-1 and in the experiment on HCC 2998 was > 100 µM (inactive) in each case. For the same compound, the GI50 in the experiment with KM12, in the experiment on UO-31, in the experiment on NCI-H226, in the experiment on SF-295, in the experiment on CCRF-CEM and in the experiment on MOLT-4 was > 100 µM (inactive) each time. Moreover, the GI50 in the experiment with Malme-3M and with 786-0 was > 100 µM (inactive) throughout.

As to `N#CCCN(CCCN(C(=O)N(c1ccccc1)c1ccccc1)c1ccccc1)C(=O)Nc1ccccc1`, the GI50 with SF-268 was > 100 µM (inactive); in the experiment with MDA-MB-435, > 100 µM (inactive); in the experiment with UACC-62 it was > 100 µM (inactive); in the experiment with OVCAR-5 it was > 100 µM (inactive); in the experiment with U-251, 92 µM (inactive); with CAKI-1 it was > 100 µM (inactive). For the same compound, the GI50 in the experiment with HCC 2998 is > 100 µM (inactive); in the experiment with KM12 it was 41.6 µM (inactive); in the experiment with UO-31, 67 µM (inactive); with A498 it was > 100 µM (inactive); with NCI-H226 it was > 100 µM (inactive); in the experiment on NCI-H522, 58.3 µM (inactive). For the same compound, the GI50 in the experiment with SF-295 is 76.6 µM (inactive); in the experiment on CCRF-CEM, 15.9 µM (inactive); in the experiment with MOLT-4, 11.5 µM (inactive); in the experiment with Malme-3M, > 100 µM (inactive); in the experiment on 786-0, > 100 µM (inactive).

Turning to `CCC(C)C(=O)OC1C(=O)OC2CC3C(C)=CC(=O)C(O)C3(C)C3C4(O)OCC23C1C(C)C4O` (stereo not given), the GI50 with SF-268 was < 0.0188 µM (active); in the experiment on MDA-MB-435 it was < 0.0124 µM (active); in the experiment with UACC-62 it was < 0.0184 µM (active); with OVCAR-5, 0.0776 µM (active); in the experiment on U-251, < 0.0107 µM (active); in the experiment with CAKI-1, 0.115 µM (active). Also, the GI50 is < 0.0262 µM (active) in the experiment on HCC 2998; < 0.0107 µM (active) with KM12; 0.0324 µM (active) in the experiment with UO-31; 0.514 µM (active) with A498; < 0.016 µM (active) in the experiment with NCI-H226; < 0.0105 µM (active) in the experiment with NCI-H522. Besides, the GI50 with SF-295 was < 0.0204 µM (active); in the experiment with CCRF-CEM it was < 0.0131 µM (active); with Malme-3M it was < 0.0104 µM (active); with 786-0 it was < 0.0166 µM (active).

As to `O=[N+]([O-])c1ccc(/C=N\N=c2/ccc([N+](=O)[O-])c[nH]2)cc1`, the GI50 is > 100 µM (inactive) with SF-268; > 100 µM (inactive) in the experiment on MDA-MB-435; > 100 µM (inactive) with UACC-62; > 100 µM (inactive) in the experiment on OVCAR-5; 69 µM (inactive) with U-251; > 100 µM (inactive) with HCC 2998. Also, the GI50 in the experiment on KM12, in the experiment with UO-31, with NCI-H226, with NCI-H522, with SF-295 and with CCRF-CEM was > 100 µM (inactive) in each case. Further, the GI50 with MOLT-4, in the experiment on Malme-3M and with 786-0 was > 100 µM (inactive) each time.

Turning to `O=C(c1ccco1)N(C(=O)N1CCC(c2ccccc2)CC1)c1ccccc1`, the GI50 in the experiment with SF-268 is 99.3 µM (inactive); in the experiment with MDA-MB-435, 35 µM (inactive); in the experiment with UACC-62, 52.1 µM (inactive); in the experiment with OVCAR-5, > 100 µM (inactive); in the experiment on U-251, 76.2 µM (inactive); with CAKI-1 it was > 100 µM (inactive). Also, the GI50 with KM12 was 27.2 µM (inactive); in the experiment on UO-31 it was 24.4 µM (inactive); in the experiment with A498 it was 94.8 µM (inactive); with NCI-H226, 31.7 µM (inactive); in the experiment with CCRF-CEM it was 26.5 µM (inactive); in the experiment with MOLT-4, 17.7 µM (inactive). The GI50 is > 100 µM (inactive) in the experiment on Malme-3M and 92.9 µM (inactive) in the experiment with 786-0.

Take `CSC(SC)=C(C(=O)c1ccc(Cl)cc1)n1c(=O)sc2cc(Br)ccc21`: the GI50 in the experiment on SF-268 was > 100 µM (inactive); in the experiment on MDA-MB-435, > 100 µM (inactive); with UACC-62, > 100 µM (inactive); with OVCAR-5 it was > 100 µM (inactive); with U-251 it was > 100 µM (inactive); in the experiment with CAKI-1, 23.1 µM (inactive). Besides, the GI50 in the experiment on HCC 2998, with KM12, in the experiment with UO-31, in the experiment with A498, with NCI-H226 and in the experiment with NCI-H522 was > 100 µM (inactive) in each case. The GI50 is > 100 µM (inactive) in the experiment on SF-295; 69.2 µM (inactive) in the experiment with CCRF-CEM; 18.7 µM (inactive) in the experiment on MOLT-4; > 100 µM (inactive) in the experiment with Malme-3M; > 100 µM (inactive) in the experiment on 786-0.
